Tested on: tat-dependent promoter activity of viral LTR carrying the TAR sequence
Assay: trans-activation CAT assay, HeLa cells cotransfected with LTR-CAT test plasmid and tat expression plasmid
Format: cell-based
Details: HeLa cells cotransfected with tat plasmid
From the text: If tat binding to TAR is necessary for trans-activation, then viral LTRs carrying TAR sequences with low affinities for tat should always have reduced tat-dependent promoter activity in vivo. Site-directed mutagenesis experiments on TAR have shown that trans-activation requires sequences in both the U-rich bulge (10, 11) and the loop sequence (12, 27, 28). These observations have now been extended, using TAR mutations with known affinities for tat in transfection experiments, the results of which are shown in FIG. 8. The experiments used either HeLa cells (FIG. 8a-d) or a constitutive producer of tat, HeLa/C63/tat cells (FIG. 8e-f).
The TAR sequences depicted in FIG. 3 [SEQ ID NO: 1-11] were introduced into a test plasmid, pD5-3-3, which carries a LTR and approximately 300 bases of 5' flanking sequences derived from the infectious proviral clone NL4 (29). The bacterial chloramphenicol acetyltransferase (CAT) gene and SV40 intron and terminator sequence from pSV2-CAT (30) was inserted downstream of TAR by cloning into the HindIII site at +77. Trans-activation was measured either by cotransfection of HeLa cells with the test plasmids and the tat expression plasmid pC63-4-1 (6) (panels a-d in […]), or by transfection of the test plasmids alone into HeLa/C63/tat (clone 9) cells (panels e-h). […]

## G28 to C28: TAR point mutation expected to disrupt the top of the TAR stem/loop structure (GGGUCUCUCUGGUUAGACCAGAUUUGACCCUGGGAGCUCUCUGGCUAACUAGGGAACCC; chemistry not given here)
  trans-activation phenotype: defective phenotype
